Laboratory results published in patent US12473294B2, “Selective modulators of mutant LRRK2 proteolysis and associated methods of use” (Arvinas Operations, Inc., priority 2020, dated 2025).

Tests used:
G2019S LRRK2 = molecular target: T1, G2019S LRRK2 (Homo sapiens, UniProt Q5S007, G2019S); assay: LRRK2 degradation HiBit assay, G2019S LRRK2 tagged with a HiBit tag expressed in HEK293 cells; type: cell-based; settings: 24 hours compound incubation; for Dmax: HEK293, HEK293 cells; for DC50: HEK293 cells
T1 construct: expressed in transfected cells; host or cells: HEK293 (ATCC CRL-1573)
T1 sequence (Q5S007 whole entry G2019S): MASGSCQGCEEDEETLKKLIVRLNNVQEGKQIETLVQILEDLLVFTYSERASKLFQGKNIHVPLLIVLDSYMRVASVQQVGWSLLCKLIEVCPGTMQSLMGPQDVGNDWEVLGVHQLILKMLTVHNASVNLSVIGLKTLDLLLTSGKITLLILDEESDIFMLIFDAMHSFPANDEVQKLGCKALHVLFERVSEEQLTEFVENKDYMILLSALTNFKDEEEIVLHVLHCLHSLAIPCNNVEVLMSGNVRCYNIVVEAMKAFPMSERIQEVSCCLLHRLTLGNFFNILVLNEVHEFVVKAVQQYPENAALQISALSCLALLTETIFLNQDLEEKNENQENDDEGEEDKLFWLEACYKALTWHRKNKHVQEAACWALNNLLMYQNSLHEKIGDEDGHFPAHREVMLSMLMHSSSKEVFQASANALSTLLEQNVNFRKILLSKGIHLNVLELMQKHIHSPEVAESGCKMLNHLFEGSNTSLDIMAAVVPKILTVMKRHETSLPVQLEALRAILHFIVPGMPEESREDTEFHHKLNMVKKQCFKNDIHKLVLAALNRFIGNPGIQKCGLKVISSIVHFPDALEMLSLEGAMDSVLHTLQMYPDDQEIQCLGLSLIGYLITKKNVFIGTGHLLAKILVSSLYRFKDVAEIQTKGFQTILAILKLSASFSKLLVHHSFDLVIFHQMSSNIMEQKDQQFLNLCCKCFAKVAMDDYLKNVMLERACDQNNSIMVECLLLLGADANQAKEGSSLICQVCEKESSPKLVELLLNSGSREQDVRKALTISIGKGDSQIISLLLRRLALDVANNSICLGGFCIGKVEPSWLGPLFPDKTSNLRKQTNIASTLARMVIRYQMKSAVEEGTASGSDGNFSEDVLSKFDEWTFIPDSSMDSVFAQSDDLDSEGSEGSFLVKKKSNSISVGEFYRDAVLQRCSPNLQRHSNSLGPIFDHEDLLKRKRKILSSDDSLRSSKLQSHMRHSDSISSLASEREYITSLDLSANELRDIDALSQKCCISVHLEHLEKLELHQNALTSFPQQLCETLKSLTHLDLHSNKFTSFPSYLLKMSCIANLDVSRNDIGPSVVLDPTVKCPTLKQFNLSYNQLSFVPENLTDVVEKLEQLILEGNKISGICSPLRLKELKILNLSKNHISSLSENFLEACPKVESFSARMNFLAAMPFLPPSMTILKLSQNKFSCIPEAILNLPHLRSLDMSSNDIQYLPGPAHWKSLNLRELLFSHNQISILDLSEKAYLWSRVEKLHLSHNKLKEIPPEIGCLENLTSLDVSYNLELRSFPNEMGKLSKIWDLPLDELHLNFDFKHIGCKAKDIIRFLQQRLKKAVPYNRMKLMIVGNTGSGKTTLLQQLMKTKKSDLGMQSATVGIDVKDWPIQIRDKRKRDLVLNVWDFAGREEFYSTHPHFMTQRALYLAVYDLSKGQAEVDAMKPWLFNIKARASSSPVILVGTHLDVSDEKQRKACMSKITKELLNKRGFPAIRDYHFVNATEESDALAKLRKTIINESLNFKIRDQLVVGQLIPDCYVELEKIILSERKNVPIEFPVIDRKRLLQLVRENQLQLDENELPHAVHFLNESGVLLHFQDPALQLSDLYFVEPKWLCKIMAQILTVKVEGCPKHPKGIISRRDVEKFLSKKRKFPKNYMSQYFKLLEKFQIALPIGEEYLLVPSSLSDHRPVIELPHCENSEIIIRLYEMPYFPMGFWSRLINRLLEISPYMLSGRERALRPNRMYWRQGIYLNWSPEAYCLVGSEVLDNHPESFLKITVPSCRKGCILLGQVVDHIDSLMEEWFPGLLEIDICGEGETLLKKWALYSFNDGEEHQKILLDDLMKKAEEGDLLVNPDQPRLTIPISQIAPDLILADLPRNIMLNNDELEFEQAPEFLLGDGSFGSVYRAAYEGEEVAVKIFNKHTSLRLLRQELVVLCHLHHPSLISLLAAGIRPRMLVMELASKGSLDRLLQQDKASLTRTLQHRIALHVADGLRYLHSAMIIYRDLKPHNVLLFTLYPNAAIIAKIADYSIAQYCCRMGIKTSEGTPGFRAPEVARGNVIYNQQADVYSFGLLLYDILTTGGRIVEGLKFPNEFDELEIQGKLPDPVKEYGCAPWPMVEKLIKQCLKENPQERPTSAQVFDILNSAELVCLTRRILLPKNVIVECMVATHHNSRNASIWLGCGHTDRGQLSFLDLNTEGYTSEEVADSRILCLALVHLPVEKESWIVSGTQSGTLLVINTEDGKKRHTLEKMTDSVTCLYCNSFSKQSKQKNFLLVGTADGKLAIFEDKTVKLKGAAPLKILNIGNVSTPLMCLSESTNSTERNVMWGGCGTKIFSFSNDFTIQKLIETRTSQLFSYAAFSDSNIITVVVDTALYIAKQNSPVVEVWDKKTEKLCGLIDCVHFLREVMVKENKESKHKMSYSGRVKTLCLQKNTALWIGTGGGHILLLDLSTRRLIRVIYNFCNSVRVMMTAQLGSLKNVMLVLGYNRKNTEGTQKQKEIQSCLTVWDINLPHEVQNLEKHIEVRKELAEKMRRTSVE
Description: (§1) The assay measures the degradation of wildtype and G2019S LRRK2 tagged with a HiBit tag on the C-terminus of the protein that was expressed from a mammalian expression vector, driven by the ubiquitin promoter in HEK293 cells. Each compound dose-response was repeated on three separate days, on three separate plates each day.
(§2) Plasmid Preparation. Transfection mixes were assembled as follows and incubated for 30 minutes at room temperature. In a 15 mL tube, 5.25 mL Opti-MEM (no additions) was mixed with 17 μL Firefly Luciferase plasmid at 1 μg/μL and 158 μL WT plasmid DNA at 1 μg/μL (175 μg total DNA) were mixed by flicking. In a new 15 mL tube, 5.25 mL OptiMEM was mixed with 17 μL Firefly Luciferase plasmid at 1 μg/μL and 158 μL G2019S plasmid DNA at 1 μg/μL (175 μg total DNA) were mixed by flicking. X-tremeGene HP was mixed thoroughly using a vortex. Next, 175 μL was added to each tube and flicked to mix. Both tubes were left to incubate for 30 minutes at room temperature.
While the transfection mixes were incubating, HEK293 cells acquired from ATCC (ATCC CRL-1573) were harvested with trypsin. Once cells are detached, the cells were resuspended in 12 mL OptiMEM+5% FBS and transferred to a 50 mL tube. The cells were mixed well and counted. Using OptiMEM+5% FBS, the cells were diluted in two 250 mL conical tubes at 0.71×10^6 cells/mL in 70 mL. One tube was labeled “WT” and the other “G2019S”. The WT and G2019S transfection mixes were added dropwise to the corresponding 250 mL tubes. The tubes were mixed first by pipetting then by swirling. The tubes were incubated at room temperature for at least 5 minutes.
(§3) Each tube was swirled before dispensing and after every three plates. Seventy microliters of cells were dispensed with WT or G2019S DNA to seven plates each. Three plates of each were tested with compound plate one (preparation described below) and three plates of each were tested with compound plate two (preparation described below). The first plate from each set served as a “prime” plate and was not used to test compounds. Each plate was incubated in the hood for 10 minutes before placing in the 37° C. incubator for 24 hours.
(§4) Preparation of Compound and Assay Plates. Two compound plates were made using 96 well polypropylene plates. Compounds were made up at 10 mM and were diluted to 1 mM in 30 μL. Each dose response curve included a well of DMSO, as a negative control and for normalization, and a well of 0.5 μM of Exemplary Compound 4 as a positive control. In addition to seven test compounds, each plate also included a dose response of Exemplary Compound 4. The compound plates were spun down along at 1200 rpm for 2 minutes.
(§5) The two compound plates were then mixed and 2 μL was diluted in intermediate plates having 248 μL of Opti-Mem in each well. Next, 10 μL diluted compounds from the intermediate plates were added to each test plate (three WT and three G2019S plates per compound plate for a total of 12 assay plates). The plates were incubated for 24 hours at 37° C.
(§6) All assay plates and all Nano-Glo Dual-Luciferase Reporter Assay System components (except for the DLR substrate) were equilibrated to room temperature. Next, the luciferase buffer was mixed with the lyophilized amber bottle until fully dissolved, and 75 μL of the luciferase mixture was added to each well of each assay plate. The assay plates were incubated for 10 minutes at room temperature with shaking for at least 5 minutes, and then read on a plate reader.
(§7) Developing Plates and Analyzing Data. One milliliter of DLR substrate and 1 mL LgBiT Protein were added to the Stop and Glo buffer, and 75 μL of the mixture was added to each well of each plate. Optically clear seals were added to each plate and each plate was incubated for 20 minutes with shaking for at least 10 minutes, and then read on a plate reader. […]

wildtype LRRK2 = molecular target: T2, wildtype LRRK2 (Homo sapiens, UniProt Q5S007); assay: LRRK2 degradation HiBit assay, wildtype LRRK2 tagged with a HiBit tag in HEK293 cells; type: cell-based; settings: 24 hours compound incubation; for Dmax: read-out: ** WT Dmax (%); for DC50: read-out: *WT DC50
T2 construct: endogenous in cells; host or cells: HEK293 with HiBit knocked in at the 3' end of the endogenous LRRK2 gene, stably expressing firefly luciferase
T2 sequence (Q5S007 whole entry): as the sequence (Q5S007 whole entry G2019S) above, with S2019G counted along it
Description: as §1, with “repeated on two separate days,” for “repeated on three separate days,”
as §2
While the transfection mixes were incubating, HEK293 cells (acquired from ATCC; ATCC CRL-1573) were harvested with trypsin. Once cells are detached, the cells were resuspended in 12 mL OptiMEM+5% FBS and transferred to a 50 mL tube. The cells were mixed well and counted. Using OptiMEM+5% FBS, the cells were diluted in two 250 mL conical tubes at 0.71×10^6 cells/mL in 70 mL. One tube was labeled “WT” and the other “G2019S”. The WT and G2019S transfection mixes were added dropwise to the corresponding 250 mL tubes. The tubes were mixed first by pipetting then by swirling. The tubes were incubated at room temperature for at least 5 minutes.
as §3, §4, §5, §6, §7

SMILES | Dmax (G2019S LRRK2) [%] | DC50 (G2019S LRRK2) [nM] | Dmax (wildtype LRRK2) [%] | DC50 (wildtype LRRK2) [nM]
CC1=C(C(=O)Nc2ccc3[nH]nc(-c4ccnc(N5CCN(CC6CCN(CC7CCN(c8ccc9c(c8)C(=O)N(C8CCC(=O)NC8=O)C9=O)CC7)CC6)[C@@H](C)C5)c4)c3c2)[C@@H](C)n2nnnc2N1C (single isomer, unassigned) [compound 8] | 50 to 70 | < 10 | 50 to 70 | 10 to 50
CC1=C(C(=O)Nc2ccc3[nH]nc(-c4ccnc(N5CCN(CC6CCN(CC7CCN(c8ccc9c(c8)C(=O)N(C8CCC(=O)NC8=O)C9=O)CC7)CC6)[C@@H](C)C5)c4)c3c2)[C@H](C)n2nnnc2N1C (single isomer, unassigned) [compound 9] | 50 to 70 | 50 to 100 | < 50 | ≥ 100
CC1=C(C(=O)Nc2ccc3[nH]nc(-c4ccnc(N5C[C@@H](C)N(CC6CCN(CC7CCN(c8ccc9c(c8)C(=O)N(C8CCC(=O)NC8=O)C9=O)CC7)CC6)[C@@H](C)C5)c4)c3c2)Cn2nnnc2N1C (stereo partly drawn) [compound 1, N-(3-(2-((3S,5R)-4-((1-((1-(2-(2,6-dioxopiperidin-3-yl)-1,3-dioxoisoindolin-5-yl)piperidin-4-yl)methyl)piperidin-4-yl)methyl)-3,5-dimethylpiperazin-1-yl)pyridin-4-yl)-1H-indazol-5-yl)-4,5-dimethyl-4,7-dihydrotetrazolo[1,5-a]pyrimidine-6-carboxamide] | 50 to 70 | < 10 | 50 to 70 | 10 to 50
CC1=C(C(=O)Nc2ccc3[nH]nc(-c4ccnc(N5C[C@@H](C)N(CC6CCN(CC7CCN(c8ccc9c(c8)C(=O)N(C8CCC(=O)NC8=O)C9=O)CC7)CC6)[C@@H](C)C5)c4)c3c2)C(C)n2nnnc2N1C (stereo partly drawn) [compound 2, N-(3-(2-((3S,5R)-4-((1-((1-(2-(2,6-dioxopiperidin-3-yl)-1,3-dioxoisoindolin-5-yl)piperidin-4-yl)methyl)piperidin-4-yl)methyl)-3,5-dimethylpiperazin-1-yl)pyridin-4-yl)-1H-indazol-5-yl)-4,5,7-trimethyl-4,7-dihydrotetrazolo[1,5-a]pyrimidine-6-carboxamide] | 50 to 70 | < 10 | 50 to 70 | 10 to 50
CC1=C(C(=O)Nc2ccc3[nH]nc(-c4ccnc(N5C[C@@H](C)N(CCOCCN6CCN(c7ccc8c(c7)C(=O)N(C7CCC(=O)NC7=O)C8=O)CC6)[C@@H](C)C5)c4)c3c2)Cn2nnnc2N1C (stereo partly drawn) [compound 3, N-(3-(2-((3R,5S)-4-(2-(2-(4-(2-(2,6-dioxopiperidin-3-yl)-1,3-dioxoisoindolin-5-yl)piperazin-1-yl)ethoxy)ethyl)-3,5-dimethylpiperazin-1-yl)pyridin-4-yl)-1H-indazol-5-yl)-4,5-dimethyl-4,7-dihydrotetrazolo[1,5-a]pyrimidine-6-carboxamide] | – | ≥ 100 | – | ≥ 100
CC1=C(C(=O)Nc2ccc3[nH]nc(-c4ccnc(N5C[C@@H](C)N(CCOCCOCCN6CCN(c7ccc8c(c7)C(=O)N(C7CCC(=O)NC7=O)C8=O)CC6)[C@@H](C)C5)c4)c3c2)Cn2nnnc2N1C (stereo partly drawn) [compound 4, N-(3-(2-((3R,5S)-4-(2-(2-(2-(4-(2-(2,6-dioxopiperidin-3-yl)-1,3-dioxoisoindolin-5-yl)piperazin-1-yl)ethoxy)ethoxy)ethyl)-3,5-dimethylpiperazin-1-yl)pyridin-4-yl)-1H-indazol-5-yl)-4,5-dimethyl-4,7-dihydrotetrazolo[1,5-a]pyrimidine-6-carboxamide] | – | ≥ 100 | – | ≥ 100
CC1=C(C(=O)Nc2ccc3[nH]nc(-c4ccnc(N5C[C@@H](C)N(CCN6CCN(c7ccc8c(c7)C(=O)N(C7CCC(=O)NC7=O)C8=O)CC6)[C@@H](C)C5)c4)c3c2)Cn2nnnc2N1C (stereo partly drawn) [compound 5, N-(3-(2-((3R,5S)-4-(2-(4-(2-(2,6-dioxopiperidin-3-yl)-1,3-dioxoisoindolin-5-yl)piperazin-1-yl)ethyl)-3,5-dimethylpiperazin-1-yl)pyridin-4-yl)-1H-indazol-5-yl)-4,5-dimethyl-4,7-dihydrotetrazolo[1,5-a]pyrimidine-6-carboxamide] | < 50 | ≥ 100 | – | ≥ 100
CC1=C(C(=O)Nc2ccc3[nH]nc(-c4ccnc(N5C[C@@H](C)N(CC6CCN(CC7CCN(c8ccc9c(c8)C(=O)N(C8CCC(=O)NC8=O)C9=O)CC7)CC6)[C@@H](C)C5)c4)c3c2)C(C)(C)n2nnnc2N1C (stereo partly drawn) [compound 6, N-(3-(2-((3S,5R)-4-((1-((1-(2-(2,6-dioxopiperidin-3-yl)-1,3-dioxoisoindolin-5-yl)piperidin-4-yl)methyl)piperidin-4-yl)methyl)-3,5-dimethylpiperazin-1-yl)pyridin-4-yl)-1H-indazol-5-yl)-4,5,7,7-tetramethyl-4,7-dihydrotetrazolo[1,5-a]pyrimidine-6-carboxamide] | < 50 | 10 to 50 | < 50 | ≥ 100
CC1=C(C(=O)Nc2ccc3[nH]nc(-c4ccnc(N5CCN(CC6CCN(CC7CCN(c8ccc9c(c8)C(=O)N(C8CCC(=O)NC8=O)C9=O)CC7)CC6)[C@@H](C)C5)c4)c3c2)Cn2nnnc2N1C (stereo partly drawn) [compound 10, N-(3-(2-((S)-4-((1-((1-(2-(2,6-dioxopiperidin-3-yl)-1,3-dioxoisoindolin-5-yl)piperidin-4-yl)methyl)piperidin-4-yl)methyl)-3-methylpiperazin-1-yl)pyridin-4-yl)-1H-indazol-5-yl)-4,5-dimethyl-4,7-dihydrotetrazolo[1,5-a]pyrimidine-6-carboxamide] | 50 to 70 | < 10 | 50 to 70 | 10 to 50
CC1=C(C(=O)Nc2ccc3[nH]nc(-c4ccnc(N5CCN(CC6CCN(CC7CCN(c8ccc9c(c8)C(=O)N(C8CCC(=O)NC8=O)C9=O)CC7)CC6)CC5)c4)c3c2)[C@@H](C)n2nnnc2N1C (stereo partly drawn) [compound 11, (7R)-N-(3-(2-(4-((1-((1-(2-(2,6-dioxopiperidin-3-yl)-1,3-dioxoisoindolin-5-yl)piperidin-4-yl)methyl)piperidin-4-yl)methyl)piperazin-1-yl)pyridin-4-yl)-1H-indazol-5-yl)-4,5,7-trimethyl-4,7-dihydrotetrazolo[1,5-a]pyrimidine-6-carboxamide] | < 50 | 10 to 50 | < 50 | 50 to 100
CC1=C(C(=O)Nc2ccc3[nH]nc(-c4ccnc(N5CCN(CC6CCN(CC7CCN(c8ccc9c(c8)C(=O)N(C8CCC(=O)NC8=O)C9=O)CC7)CC6)CC5)c4)c3c2)[C@H](C)n2nnnc2N1C (stereo partly drawn) [compound 12, (7S)-N-(3-(2-(4-((1-((1-(2-(2,6-dioxopiperidin-3-yl)-1,3-dioxoisoindolin-5-yl)piperidin-4-yl)methyl)piperidin-4-yl)methyl)piperazin-1-yl)pyridin-4-yl)-1H-indazol-5-yl)-4,5,7-trimethyl-4,7-dihydrotetrazolo[1,5-a]pyrimidine-6-carboxamide] | < 50 | ≥ 100 | – | ≥ 100
